Our source for the cytotoxicity values is patent US20180179386A1, “NANOGEL COMPOUND” (priority 2015, published 2018).

This data set has as its system DOXO resistant cell line KB-V1. The data set is described as follows: Cytotoxicity of DOXO-loaded nanogel compounds vs free DOXO, MTT assay, resistant cells. The format is cell-based. The note with it: free DOXO up to 10 μM external concentration. The text has this:
In order to use the nanogel compounds for anticancer therapy, the cytotoxicity of the DOXO-loaded nanogel compounds compared with free DOXO was studied in two different cell lines: sensitive-type HeLa cells and DOXO resistant cell line KB-V1. Thereby, squares denote PNIPAM-dPG/AMPS, circles denote PNIPAM-dPG/DMAEM, and triangles denote free DOXO.
Background: Tetrazolium assays rely on reduction of a dye to a coloured formazan, in cell work by metabolically active cells.

As to `COc1cccc2c1C(=O)c1c(O)c3c(c(O)c1C2=O)C[C@@](O)(C(=O)CO)C[C@@H]3O[C@H]1C[C@H](N)[C@H](O)[C@H](C)O1` [DOXO, doxorubicin], the cytotoxicity entry is “no effect”.
